Data: patent US20220339138A1, “METHODS AND COMPOSITIONS FOR TREATMENT OF RETT SYNDROME” (ACADIA PHARMACEUTICALS INC., priority 2019, published 2022)
“Also recorded” adds a separate entry of the source. Where two headings read alike, the source gives them in different places. Square brackets hold non-standard residues; d marks the D form. Peptide text beside a SMILES is read from it. αMeP = C[C@@]1(C(=O)O)CCCN1

Key:
clinical = settings: human, in vivo
Experimental: These pharmacokinetic results are in agreement with the data obtained previously in healthy subjects and in adolescent and adult RTT patients.
Therefore, the upper levels of exposure in the 200 mg/kg BID dose level were considered to be effective and thus an appropriate target exposure level. Thus, dosing strategies were developed with the aim of providing a minimal target exposure of 800 μg/mL·h, corresponding approximately to the 90-100% AUC quantile of exposure (AUC0-12) observed in the children/adolescents study for the nominal dose of 200 mg/kg BID. With weight-banding, a greater proportion of subjects is expected to achieve the target drug exposure.

[1] = Population pharmacokinetic model from 9 clinical studies; assay type: in vivo, human; settings: final population PK model, population mean
From the text: Data for the population PK model development of trofinetide came from 5 Phase 1 studies and 4 Phase 2 studies, including patients with Rett syndrome and other diseases. A total of 3058 trofinetide concentration records collected in 290 subjects were available for potential use in the analysis. A blend of full-profile and sparse data from 94 healthy volunteers, 93 patients with Rett syndrome (adult and pediatric), 103 patients with other diseases was available for this analysis.
Key steps for the development of the trofinetide population PK model were: 1) exploratory data analysis; 2) base structural model development via application, re-estimation, and refinement of a population PK model using pooled data from 9 clinical studies; 3) evaluation of covariate effects using forward selection; 4) full multivariable model evaluation: 5) backward elimination of covariates; 6) final model refinement; and 7) model evaluation. The continuous covariates evaluated included age, body weight, body mass index (BMI), estimated glomerular filtration rate, total bilirubin, alanine aminotransferase, and aspartate aminotransferase. The only categorical covariate evaluated was a combination of sex and disease state (SEXDS), where: SEXDS=0 for male healthy volunteers, SEXDS=1 for female healthy volunteers, SEXDS=2 for patients with Rett (female only), SEXDS=3 for patients with other disease A (male only), SEXDS=4 for male patients with other disease B, and SEXDS=5 for female patients with other disease B. The covariate analysis used a standard forward selection-backward elimination method to identify statistically significant (α=0.001) predictors of PK variability that also explained a sufficient proportion of interindividual variability (IIV) for the respective PK parameter upon which they were tested (that is, reducing IV by ≥5%). The final PK model was validated using a simulation-based, prediction-corrected visual predictive check (pcVPC) methodology to assess concordance between the model-based simulated data and the observed data.
A total of 2759 trofinetide plasma concentrations in 281 subjects were used in the development of the population PK model. The analysis dataset comprised subjects with a median (range) age of 22 (5 to 64) years and a median (range) body weight of 65.6 (15.1 to 139.6) kg, with 52.8% of the analysis population being male and 47.2% female.
The final population PK model for trofinetide was a 2-compartment model with first-order absorption, linear elimination, and 2 separate exponential error models for healthy volunteers and patients. The model included separate bioavailability terms for oral dosing (relative bioavailability [F1]) and dosing via gastric tube (F1G). Interindividual variability was estimated for first-order absorption (ka), clearance (CL), central volume of distribution (Vc), peripheral volume of distribution (Vp), and intercompartmental clearance (Q) using exponential error models.
A total of 4 covariate-parameter relationships were included in the final population PK model. […] Therefore, the final PK model included body weight as a significant predictor of both CL (as a power function) and Vc (as a power function), and SEXDS as a significant predictor of both CL (as a proportional function) and Vc (as a proportional function).

[2] = tested on: patients with Rett syndrome; test: CGI-I exposure-response model; design: species or system human; settings: refined population PK and E-R models
Experimental: Exposure-response analyses of the CGI-I scores were performed on data from patients with Rett syndrome with available trofinetide exposure estimates, plus placebo patients. All of the patients included in this analysis had at least 1 CGI-I score measured after trofinetide or placebo dosing. Data from 52 adult patients with Rett syndrome and 81 pediatric patients with Rett syndrome were pooled for this analysis.
The endpoints used for E-R efficacy modeling include CGI-I scores from two clinical studies and RSBQ scores from one clinical study. The CGI-I scores were measured on Days 5, 14, 17, and 26 and CGI-I scores were measured on Days 21, 28, 42, and 54. All patients received placebo for the first 14 days, so Day 14 was treated as the “true baseline” for trofinetide treatment. The RSBQ scores were collected on Days 14, 28, 42 and 54.
The overall procedures followed for the development of the E-R models for CGI-I and RSBQ scores were: 1) generation of individual estimates of exposure based on the population PK model; 2) exploratory data analysis; 3) base structural model development incorporating drug exposure effects; 4) evaluation of covariate effects, 5) final model refinement; and 6) model evaluation. Covariates evaluated in the analysis of efficacy endpoints were age, body weight, and BMI. […]

girls and women with RTT = test: Phase 2 clinical studies of trofinetide in Rett syndrome (efficacy, tolerability); assay type: in vivo, human
Experimental: Rett syndrome is a devastating disorder for which there is as yet no treatment beyond symptomatic care resulting in a great unmet medical need. […] Exposure-response analyses of RSBQ scores were performed on data from pediatric patients with Rett syndrome with available trofinetide exposure estimates, plus placebo patients. All of the patients included in this analysis had at least 1 RSBQ score measured after trofinetide or placebo dosing. The RSBQ E-R analysis dataset included only the 81 pediatric patients with Rett syndrome. The endpoints used for E-R efficacy modeling include CGI-I scores from two clinical studies and RSBQ scores from one clinical study. The CGI-I scores were measured on Days 5, 14, 17, and 26 and CGI-I scores were measured on Days 21, 28, 42, and 54. All patients received placebo for the first 14 days, so Day 14 was treated as the “true baseline” for trofinetide treatment. The RSBQ scores were collected on Days 14, 28, 42 and 54.

[3] = cited from earlier work
[4] = following oral administration; cited from earlier work
MeCP2 mutant mice = MeCP2 mutant mice (Tropea et al. 2009); cited from earlier work
[5] = tested on: children with Rett syndrome 2 to 10 years of age; settings: Phase 2 trial (O'Leary et al. 2018); cited from earlier work
[6] = 50 mg/kg BID, pediatric RTT patients
[7] = 100 mg/kg BID, pediatric RTT patients
[8] = 200 mg/kg BID, pediatric RTT patients

Compound: C[C@@]1(C(=O)N[C@@H](CCC(=O)O)C(=O)O)CCCN1C(=O)CN [trofinetide, (2S)-2-[[(2S)-1-(2-aminoacetyl)-2-methylpyrrolidine-2-carbonyl]amino]pentanedioic acid] (H-Gly-[αMeP]-Glu-OH)
- effect of body weight on clearance and central volume of distribution (clinical): significant effect
- AUC(0-t) (clinical; 200 mg/kg): ≥ 790 µg·h/mL
- bioavailability ([1]; both sexes, human, plasma, other: gastric tube, read-out: F1G: Gastric Tube Bioavailability): 84.7%
- bioavailability ([1]; both sexes, human, plasma, po, read-out: F1: Oral Bioavailability): 77%
- clearance ([1]; both sexes, human, plasma, read-out: CL: Central Clearance (converted)): 192 mL/min
- Q: Distribution Clearance [1]: 1.02 L/h
- Vc: Central Volume [1]: 22.2 L
- Vc: Exponent of (WTKG/65) for Vc [1]: 0.770
- Vc: Proportional Shift in Vc for Rett = 1 [1]: −0.562
- Vc: Proportional Shift in Vc for disease B = 1 [1]: −0.374
- Vp: Peripheral Volume [1]: 53.0 L
- ka: First-Order Absorption Rate Constant [1]: 0.195 h⁻¹
- association of higher trofinetide exposure with improvement in Rett syndrome (CGI-I and RSBQ scores) compared to placebo [2]: greater improvement
- clinical efficacy versus placebo (girls and women with RTT; 200 mg/kg BID, Phase 2): evidence of clinical efficacy; also recorded: benefit compared to placebo
- median percent change in RSBQ scores from baseline (girls and women with RTT; 200 mg/kg twice daily (BID), over 54 days, pediatric patients with Rett syndrome): −14.4%
- PK/PD relationship (exposure versus RSBQ, RTT-DSC, CGI-I) (girls and women with RTT; exploratory analyses, Phase 2): positive PK/PD relationship
- tolerability (girls and women with RTT; two studies in girls and women with RTT): well tolerated
- median AUC(0-12ss) [3, 6]: 139.4 µg·h/mL
- median Cmax [3, 6]: 17.7 µg/mL
- median AUC(0-12ss) [3, 7]: 338.6 µg·h/mL
- median Cmax [3, 7]: 52.6 µg/mL
- median AUC(0-12ss) [3, 8]: 505.1 µg·h/mL
- median Cmax [3, 8]: 82.2 µg/mL
- accumulation, metabolic inhibition, or induction during treatment ([3]; Phase 2 studies): no accumulation, metabolic inhibition, or induction
- pharmacokinetics across the dose range tested ([3]; pediatric RTT patients): linear pharmacokinetics
- blood-brain barrier passage [4]: crosses the blood-brain barrier

Compound: glycine-proline-glutamate [GPE]
- effect on Rett-like symptoms (MeCP2 mutant mice): reversed Rett-like symptoms

Compound: mecasermin: recombinant human IGF-1, a compound related to trofinetide
- CSBS-DP-IT, active treatment group compared to placebo [5]: evidence of benefit
